Patent publication US20220194936A1, “CRYSTALLINE FORMS OF N-(5-(5-((1R,2S)-2-FLUOROCYCLOPROPYL)-1,2,4-OXADIAZOL-3-YL)-2-METHYLPHENYL)IMIDAZO[1,2-A]PYRIDINE-3-CARBOXAMIDE” (Novartis AG, priority 2019, published 2022)
Converted amounts (≈) assume the structure as drawn. Read-outs that look alike come from different tables or passages of the source.

Key:
Type in all cases: physicochemical
[1] = Evaluation of closed container thermal degradation (solid state, 1 week; HPLC, XRPD, color); conditions: tight container; for Bulk (XRPD): 50° C. and 80° C.
Method: 5-(5-((1R,2S)-2-fluorocyclopropyl)-1,2,4-oxadiazol-3-yl)-2-methylphenyl)imidazo[1,2-a]pyridine-3-carboxamide Form A (10 mg) was placed in a closed vial at 50° C. and 80° C. chamber for 1 week. The initial purity of (5-(5-((1R,2S)-2-fluorocyclopropyl)-1,2,4-oxadiazol-3-yl)-2-methylphenyl)imidazo[1,2-a]pyridine-3-carboxamide Form A was 99.7%.
The samples were examined by XRPD for physical stability determination and by HPLC for chemical stability determination indicated by the presence of degradation products (DP).
The HPLC method used is described in Example 13-1. The color (CL) of the samples was evaluated by visual observation.
(5-(5-((1R,2S)-2-fluorocyclopropyl)-1,2,4-oxadiazol-3-yl)-2-methylphenyl)imidazo[1,2-a]pyridine-3-carboxamide fumaric acid co-crystal (10 mg) was placed in a closed vial at 50° C. and 80° C. chamber for 1 week. The initial purity of (5-(5-((1R,2S)-2-fluorocyclopropyl)-1,2,4-oxadiazol-3-yl)-2-methylphenyl)imidazo[1,2-a]pyridine-3-carboxamide Fumaric acid co-crystal was 99.7%.
The HPLC method used is described in Example 19-1. The color (CL) of the samples was evaluated by visual observation.

[2] = Evaluation of the effect of grinding and granulation; conditions: Grinding and granulation with added water or ethanol
Method: 5-(5-((1R,2S)-2-fluorocyclopropyl)-1,2,4-oxadiazol-3-yl)-2-methylphenyl)imidazo[1,2-a]pyridine-3-carboxamide Form A (10 mg) was placed in a container and ground with added water or ethanol.
5-(5-((1R,2S)-2-fluorocyclopropyl)-1,2,4-oxadiazol-3-yl)-2-methylphenyl)imidazo[1,2-a]pyridine-3-carboxamide fumaric acid co-crystal (10 mg) was placed in a container and ground with added water or ethanol.

[3] = Hygroscopicity by DVS at 25° C.
Method: The hygroscopicity of 5-(5-((1R,2S)-2-fluorocyclopropyl)-1,2,4-oxadiazol-3-yl)-2-methylphenyl)imidazo[1,2-a]pyridine-3-carboxamide Form A was evaluated by DVS at 25° C. and various RH values. The samples was examined by XRPD for physical stability determination.
The hygroscopicity of 5-(5-((1R,2S)-2-fluorocyclopropyl)-1,2,4-oxadiazol-3-yl)-2-methylphenyl)imidazo[1,2-a]pyridine-3-carboxamide fumaric acid co-crystal was evaluated by DVS at 25° C. and various RH values. The samples was examined by XRPD for physical stability determination.

[4] = Crystal modification after equilibration in water for 2 weeks (XRPD); conditions: after 2 weeks in water
Method: 5-(5-((1R,2S)-2-fluorocyclopropyl)-1,2,4-oxadiazol-3-yl)-2-methylphenyl)imidazo[1,2-a]pyrindine-3-carboxamide Form A (10 mg) was placed in a vial containing water for 2 weeks and the sample was then examined by XRPD for physical stability determination. It was observed that after 2 weeks in water 5-(5-((1R,2S)-2-fluorocyclopropyl)-1,2,4-oxadiazol-3-yl)-2-methylphenyl)imidazo[1,2-a]pyridine-3-carboxamide Form A converted to 5-(5-((1R,2S)-2-fluorocyclopropyl)-1,2,4-oxadiazol-3-yl)-2-methylphenyl)imidazo[1,2-a]pyridine-3-carboxamide Form HB.
5-(5-((1R,2S)-2-fluorocyclopropyl)-1,2,4-oxadiazol-3-yl)-2-methylphenyl)imidazo[1,2-a]pyrindine-3-carboxamide Fumaric acid co-crystal (10 mg) was placed in a vial containing water for 2 weeks and the sample was then examined by XRPD for physical stability determination. No change in XRPD was observed after 2 weeks in water.

[5] = Solubility in various media at 25° C. after 24 hours equilibration (HPLC); conditions: for solubility at 24 h: thermodynamic from solid, read-out: Conc. (solubility)
Method: (§1) 5-(5-((I R,2S)-2-fluorocyclopropyl)-1,2,4-oxadiazol-3-yl)-2-methylphenyl)imidazo[1,2-a]pyridine-3-carboxamide Form A (10 mg) in various media (1 mL) were mixed in a glass vial to make a slurry. Each sample was equilibrated at 25° C. for 24 hrs, and centrifuged at 13400 r.p.m. for 3 mins with 0.2 μm membrane to separate solids from liquids. The liquid was used to measure solubility by HPLC. Table 6 provides solubility data of 5-(5-((1R,2S)-2-fluorocyclopropyl)-1,2,4-oxadiazol-3-yl)-2-methylphenyl)imidazo[1,2-a]pyridine-3-carboxamide Form A at 25° C. after 24 hours equilibration and the final pH of the sample.
as §1, with “5-(5-((1R,2S)-2-fluorocyclopropyl)-1,2,4-oxadiazol-3-yl)-2-methylphenyl)imidazo[1,2-a]pyridine-3-carboxamide fumaric acid co-crystal” for “5-(5-((I R,2S)-2-fluorocyclopropyl)-1,2,4-oxadiazol-3-yl)-2-methylphenyl)imidazo[1,2-a]pyridine-3-carboxamide Form A”, “10” for “6”, “fumaric acid co-crystal” for “Form A”

[6] = FaSSIF-V2, pH 6.5, 25° C., LOQ = Limit of Quantitation +/− 0.5 μg/ml
[7] = Water, 25° C., LOQ = Limit of Quantitation +/− 0.5 μg/ml
[8] = pH 4.7, acetate buffer, 25° C., LOQ = Limit of Quantitation +/− 0.5 μg/ml
[9] = pH 6.8, phosphate buffer, 25° C.
[10] = pH 6.8, phosphate buffer, 25° C., LOQ = Limit of Quantitation +/− 0.5 μg/ml
[11] = pH 10.0, borate buffer, 25° C., LOQ = Limit of Quantitation +/− 0.5 μg/ml

For `Cc1ccc(-c2noc([C@H]3C[C@@H]3F)n2)cc1NC(=O)c1cnc2ccccn12` [Form A, N-(5-(5-((1R,2S)-2-fluorocyclopropyl)-1,2,4-oxadiazol-3-yl)-2-methylphenyl)imidazo[1,2-a]pyridine-3-carboxamide], the “Bulk (XRPD)” value [1] was “Bulk (XRPD): No change”, the “CL (color)” value ([1]; 50° C.) was “No change” and the “DP (%) degradation products, Bulk (HPLC)” value ([1]; 50° C.) was 0.06%. For the same compound, the “CL (color)” value ([1]; 80° C.) was “No change”, the “DP (%) degradation products, Bulk (HPLC)” value ([1]; 80° C.) was 0.07% and the “Change in solid state” value [2] was “no change in solid state”. For the same compound, the “Desorporption. Weight % change” value ([3]; 0 % RH) was 0.0000%, the “Sorption Weight % change” value ([3]; 0 % RH) was 0.0000% and the “Desorporption. Weight % change” value ([3]; 10 % RH) was 0.0167%. The “Sorption Weight % change” value ([3]; 10 % RH) was 0.0167%, the “Desorporption. Weight % change” value ([3]; 20 % RH) was 0.0501% and the “Sorption Weight % change” value ([3]; 20 % RH) was 0.0234%. For the same compound, the “Desorporption. Weight % change” value ([3]; 30 % RH) was 0.0768%, the “Sorption Weight % change” value ([3]; 30 % RH) was 0.0468% and the “Desorporption. Weight % change” value ([3]; 40 % RH) was 0.0802%. The “Sorption Weight % change” value ([3]; 40 % RH) was 0.0601%, the “Desorporption. Weight % change” value ([3]; 50 % RH) was 0.0735% and the “Sorption Weight % change” value ([3]; 50 % RH) was 0.0568%. The “Desorporption. Weight % change” value ([3]; 60 % RH) was 0.0969%, the “Sorption Weight % change” value ([3]; 60 % RH) was 0.0868% and the “Desorporption. Weight % change” value ([3]; 70 % RH) was 0.1369%. The “Sorption Weight % change” value ([3]; 70 % RH) was 0.1169%, the “Desorporption. Weight % change” value ([3]; 80 % RH) was 0.1803% and the “Sorption Weight % change” value ([3]; 80 % RH) was 0.1436%. The “Desorporption. Weight % change” value ([3]; 90 % RH) was 0.2338%, the “Sorption Weight % change” value ([3]; 90 % RH) was 0.2104% and the “Crystal modification by XRPD” value [4] was “Form HB”. The solubility at 24 h ([5]; 0.01N HCl, 25 °C, pH 2, simulated gastric fluid, pH 2.0 (0.01N HCl), 25° C.) was 0.21 mg/mL (≈ 556 µM), the solubility at 24 h ([5]; 0.1N HCl, 25 °C, pH 1, simulated gastric fluid, pH 1.0 (0.1N HCl), 25° C.) was 0.44 mg/mL (≈ 1170 µM) and the “Final pH” value ([5]; FaSSIF-V2, pH 6.5, 25° C.) was 6.40. For the same compound, the “Conc. (solubility)” value [5, 6] was “LOQ”, the solubility at 24 h ([5]; FeSSIF-V2, 25 °C, pH 5.8, fessif, FeSSIF-V2, pH 5.8, 25° C.) was 0.015 mg/mL (≈ 39.7 µM) and the “Final pH” value ([5]; FeSSIF-V2, pH 5.8, 25° C.) was 5.63. The “Conc. (solubility)” value ([5]; SGF pH 2.0, 25° C.) was 0.64 mg/mL, the “Final pH” value ([5]; SGF pH 2.0, 25° C.) was 2.10 and the “Final pH” value ([5]; Water, 25° C.) was 7.91. The “Conc. (solubility)” value [5, 7] was “LOQ”, the “Final pH” value ([5]; pH 1.0 (0.1N HCl), 25° C.) was 1.20 and the “Final pH” value ([5]; pH 2.0 (0.01N HCl), 25° C.) was 2.06. The “Final pH” value ([5]; pH 4.7, acetate buffer, 25° C.) was 4.78, the “Conc. (solubility)” value [5, 8] was “LOQ” and the “Final pH” value [5, 9] was 6.77. For the same compound, the “Conc. (solubility)” value [5, 10] was “LOQ”, the “Final pH” value ([5]; pH 10.0, borate buffer, 25° C.) was 10.02 and the “Conc. (solubility)” value [5, 11] was “LOQ”.
For `Cc1ccc(-c2noc([C@H]3C[C@@H]3F)n2)cc1NC(=O)c1cnc2ccccn12` [fumaric acid co-crystal, N-(5-(5-((1R,2S)-2-fluorocyclopropyl)-1,2,4-oxadiazol-3-yl)-2-methylphenyl)imidazo[1,2-a]pyridine-3-carboxamide fumaric acid co-crystal], the “Bulk (XRPD)” value [1] was “Bulk (XRPD): No change”, the “CL (color)” value ([1]; 50° C.) was “No change” and the “DP (%) degradation products, Bulk (HPLC)” value ([1]; 50° C.) was 0.15%. The “CL (color)” value ([1]; 80° C.) was “No change”, the “DP (%) degradation products, Bulk (HPLC)” value ([1]; 80° C.) was 0.08% and the “Change in solid state” value [2] was “no change in solid state”. The “Desorporption. Weight % change” value ([3]; 0 % RH) was 0.0000%, the “Sorption Weight % change” value ([3]; 0 % RH) was 0.0000% and the “Desorporption. Weight % change” value ([3]; 10 % RH) was 0.0153%. For the same compound, the “Sorption Weight % change” value ([3]; 10 % RH) was −0.0019%, the “Desorporption. Weight % change” value ([3]; 20 % RH) was 0.0307% and the “Sorption Weight % change” value ([3]; 20 % RH) was 0.0038%. The “Desorporption. Weight % change” value ([3]; 30 % RH) was 0.0939%, the “Sorption Weight % change” value ([3]; 30 % RH) was 0.0383% and the “Desorporption. Weight % change” value ([3]; 40 % RH) was 0.0996%. The “Sorption Weight % change” value ([3]; 40 % RH) was 0.0632%, the “Desorporption. Weight % change” value ([3]; 50 % RH) was 0.1130% and the “Sorption Weight % change” value ([3]; 50 % RH) was 0.0843%. For the same compound, the “Sorption Weight % change” value ([3]; 60 % RH) was 0.0958%, the “Desorporption. Weight % change” value ([3]; 70 % RH) was 0.1590% and the “Sorption Weight % change” value ([3]; 70 % RH) was 0.1322%. The “Desorporption. Weight % change” value ([3]; 80 % RH) was 0.1897%, the “Sorption Weight % change” value ([3]; 80 % RH) was 0.1590% and the “Desorporption. Weight % change” value ([3]; 90 % RH) was 0.1935%. For the same compound, the “Sorption Weight % change” value ([3]; 90 % RH) was 0.2107%, the “Crystal modification by XRPD” value [4] was “No change” and the “Final pH” value ([5]; FaSSIF-V2, pH 6.5, 25° C.) was 4.66. For the same compound, the “Conc. (solubility)” value [5, 6] was “LOQ”, the “Conc. (solubility)” value ([5]; FeSSIF-V2, pH 5.8, 25° C.) was 0.008 mg/mL and the “Final pH” value ([5]; FeSSIF-V2, pH 5.8, 25° C.) was 4.75. The “Conc. (solubility)” value ([5]; SGF pH 2.0, 25° C.) was 0.18 mg/mL, the “Final pH” value ([5]; SGF pH 2.0, 25° C.) was 1.94 and the “Final pH” value ([5]; Water, 25° C.) was 4.26. For the same compound, the “Conc. (solubility)” value [5, 7] was “LOQ”, the “Conc. (solubility)” value ([5]; pH 1.0 (0.1N HCl), 25° C.) was 0.41 mg/mL and the “Final pH” value ([5]; pH 1.0 (0.1N HCl), 25° C.) was 0.95. For the same compound, the “Conc. (solubility)” value ([5]; pH 2.0 (0.01N HCl), 25° C.) was 0.19 mg/mL, the “Final pH” value ([5]; pH 2.0 (0.01N HCl), 25° C.) was 1.98 and the “Final pH” value ([5]; pH 4.7, acetate buffer, 25° C.) was 4.51. The “Conc. (solubility)” value [5, 8] was “LOQ”, the “Final pH” value [5, 9] was 5.79 and the “Conc. (solubility)” value [5, 10] was “LOQ”. For the same compound, the “Final pH” value ([5]; pH 10.0, borate buffer, 25° C.) was 8.76 and the “Conc. (solubility)” value [5, 11] was “LOQ”.
